Reference: US20220274947A1, “NOVEL HETEROARYL-TRIAZOLE COMPOUNDS AS PESTICIDES” (Bayer Aktiengesellschaft, priority 2019, published 2022)

What was measured:
Assay type in all cases: in vivo
Ctenocephalides felis = Ctenocephalides felis oral test (CTECFE Oral); conditions: 48 h, read-out: activity (mortality)
How it was run: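 About 20 unfed adult cat fleas fed through parafilm on cattle blood containing compound (DMSO concentrate diluted in blood to the desired concentration). Blood held at 37 °C, fleas at room temperature. Mortality (%) scored after 2 days.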

Rhipicephalus sanguineus = Rhipicephalus sanguineus in-vitro contact test, adult brown dog ticks (RHIPSA Cont); conditions: 48 h, after 48 hours, read-out: activity (efficacy: 100% means all ticks are dead or moribund); for pest or weed control at 1 µg/cm2, 100 g/ha: application rate 1 μg/cm^2 (=100 g/ha); for pest or weed control at 5 µg/cm2, 500 g/ha: application rate 5 μg/cm^2 (=500 g/ha)
How it was run: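 Mortality of adult R. sanguineus was judged 48 h after contact with acetone-applied residues on glass tube walls. Ticks that stayed immotile or moved without coordination when heated to 45–50 °C (max 5 min) counted as dead or moribund.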

Myzus persicae [1] = experiment: Myzus persicae oral test; conditions: 120 h, read-out: activity (mortality)
How it was run: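 Percent mortality was recorded at day 5, where 0% means no aphids killed. Compound prepared from an acetone concentrate diluted in water and combined with IPL41 medium containing sugar was offered to mixed-stage green peach aphids, which sucked it through a parafilm seal.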

[2] = system: Aedes aegypti strain MONHEIM; experiment: Aedes aegypti test (AEDSAE surface treatment & contact assay); conditions: exposure 30 minutes, 24 hours after contact, read-out: efficacy (mortality); for mortality at 4 mg/m2: surface concentration 4 mg/m^2, glazed tile; for mortality at 20 mg/m2: surface concentration 20 mg/m^2, glazed tile
How it was run: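 Compound dissolved in acetone (2 mg/ml) with 2000 ppm rapeseed oil methyl ester, pipetted onto glazed tile and dried. Adult mosquitoes exposed on the surface for 30 min; percent mortality scored 24 h after contact.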

[3] = system: Anopheles funestus strain FUMOZ-R; experiment: Anopheles funestus test (ANPHFU surface treatment & contact assay); conditions: exposure 30 minutes, 24 hours after contact, read-out: efficacy (mortality); for mortality at 4 mg/m2: surface concentration 4 mg/m^2, glazed tile; for mortality at 20 mg/m2: surface concentration 20 mg/m^2, glazed tile
Method: Anopheles funestus Test (ANPHFU Surface Treatment & Contact Assay) Solvent: Aceton+2000 ppm rapeseed oil methyl ester (RME)
In order to produce a sufficient, active ingredient containing solution it is necessary to solve the test compound in the solvent-mix (acetone at 2 mg/ml/RME 2000 ppm). This solution is pipetted onto a glazed tile and after evaporation of the acetone, adult mosquitoes of the species Anopheles funestus strain FUMOZ-R (Hunt et al., Med. Vet. Entomol. 2005 September; 19(3): 271-275) are placed onto the dried surface. The exposure time is 30 minutes. Mortality in percent (%) is determined 24 hours after contact of the insects to the treated surface. 100% mortality means that all tested insects are dead, whereas 0% means that no insect died.

Myzus persicae [4] = experiment: Myzus persicae spray test; conditions: in Brassica rapa, foliar, 120 h; for mortality at 100 g/ha: read-out: activity (mortality), application rate 100 g/ha, spray, Chinese cabbage leaf disks, after 5 days
How it was run: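 Compound in acetone/DMF solvent diluted in water with 1000 ppm alkylarylpolyglycol ether emulsifier, sprayed onto Chinese cabbage leaf disks infested with all instars of Myzus persicae. Mortality (%) scored after 5 days.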

SMILES	mortality at 100 ppm (Ctenocephalides felis) [%]	pest or weed control at 1 µg/cm2, 100 g/ha (Rhipicephalus sanguineus) [%]	mortality at 4 ppm (Myzus persicae [1]) [%]	mortality at 4 mg/m2 [2] [%]	mortality at 20 mg/m2 [2] [%]	pest or weed control at 5 µg/cm2, 500 g/ha (Rhipicephalus sanguineus) [%]	mortality at 4 mg/m2 [3] [%]	mortality at 0.8 ppm (Myzus persicae [1]) [%]	mortality at 100 g/ha (Myzus persicae [4]) [%]	mortality at 500 g/ha (Myzus persicae [4]; read-out: activity (mortality), application rate 500 g/ha, spray, Chinese cabbage leaf disks, after 5 days) [%]	mortality at 20 mg/m2 [3] [%]
CC(C)c1nc([C@H](C)NC(=O)c2cncc(C(F)(F)F)c2)n(-c2ccc(C#N)cn2)n1 [I-30]	100	80	90	80 to 100	80 to 100	–	–	–	–	–	–
C[C@H](NC(=O)c1cc(Br)cc(OC(F)(F)F)c1)c1ncnn1-c1ccc(C#N)cn1 [II-14]	100	80	100	80 to 100	80 to 100	80	80 to 100	–	–	–	–
Cc1nc([C@H](C)NC(=O)c2cc(Br)cc(C(F)(F)F)c2)n(-c2ccc(C#N)cn2)n1 [II-32]	–	100	100	80 to 100	80 to 100	100	–	100	100	90	–
Cc1nc([C@H](C)NC(=O)c2cc(Cl)cc(C#N)c2)n(-c2ccc(C#N)cn2)n1 [II-61]	100	100	100	80 to 100	80 to 100	100	–	–	90	–	–
Cc1nc([C@H](C)NC(=O)c2cc(Cl)cc(C(F)F)c2)n(-c2ccc(C#N)cn2)n1 [II-65]	100	100	100	80 to 100	80 to 100	100	–	–	90	–	–
C[C@H](NC(=O)c1cc(C(F)(F)F)cc(C(F)(F)F)c1)c1ncnn1-c1ccc(C(N)=O)cn1 [II-81]	100	–	100	80 to 100	80 to 100	–	80 to 100	100	90	–	80 to 100
Cc1nc([C@H](C)NC(=O)c2cc(C(F)(F)F)cc(C(F)(F)F)c2)n(-c2ccc(C(=O)N(C)CC#N)cn2)n1 [II-99]	–	100	100	–	80 to 100	100	–	100	90	–	–
C[C@H](NC(=O)c1cc(C(F)F)cc(C(F)F)c1)c1ncnn1-c1ccc(C#N)cn1 [II-101]	–	100	100	80 to 100	80 to 100	100	80 to 100	100	90	–	80 to 100
C[C@H](NC(=O)c1cc(OC(F)(F)F)cc(C(F)F)c1)c1ncnn1-c1ccc(C#N)cn1 [II-111]	–	100	100	80 to 100	–	100	–	90	–	–	–
C[C@H](NC(=O)c1cc(OC(F)F)cc(C(F)F)c1)c1ncnn1-c1ccc(C#N)cn1 [II-116]	–	100	100	80 to 100	80 to 100	100	–	100	90	–	80 to 100
Cc1nc([C@H](C)NC(=O)c2cc(OC(F)(F)F)cc(C(F)F)c2)n(-c2ccc(C#N)cn2)n1 [II-117]	–	100	100	80 to 100	80 to 100	100	–	100	100	–	–
